According to patent publication US9359281B2, “Enantiomers of 2-hydroxy derivatives of fatty acids” (UNIVERSITAT DE LES ILLES BALEARS, priority 2011, dated 2016):

Legend:
U87 cells = assay: Levels of SM in cell membranes, U87; type: cell-based, human; conditions: U87, 200 μM [−]2OHOA
Procedure: (§1) The levels of SM, cultivated in the absence (control) or presence of 200 μM of [−]2OHOA, in normal cell membranes (MRC-5 and IMR90) were measured, and also in several types of tumoral cells (see Table 2). In all cases, we detected that the membranes of tumoral cells have SM levels of about half or a third of that in normal cells (FIG. 1). We can therefore assert that SM concentration is a biomarker which indicates tumorgenesis in human cells. On the other hand, treatments with the molecules of the present invention induce an increase of SM in the tumour cells which is not naturally occurring. […] For example, the spectrophotometry determination of solution fluorescence of the SM levels is a very simple, quick and efficient analysis method (FIG. 1D). Thus, this invention has generated a method for diagnosis for detecting the described pathological processes and pathologies in which there are SM level changes, and also for monitoring the efficiency of the therapy using molecules of the present invention and others of similar activity. Based on this knowledge, this invention also includes kits for diagnosing these diseases.

PC3 cells = assay: Levels of SM in cell membranes, PC3; type: cell-based, human; conditions: PC3, 200 μM [−]2OHOA
Procedure: as §1

C-6 cells = assay: Levels of SM in cell membranes, C-6; type: cell-based; conditions: C-6 rat glioma, 200 μM [−]2OHOA
Procedure: as §1

[1] = tested on: human lung tumour sections (A549 cells); assay: SM marking (lysenin) in A549 tumour sections from treated mice; type: in vivo; conditions: 600 or 900 mg/kg per day, oral, 50 days
Procedure: C. Upper panel: specific marking by immunocytochemical techniques of the SM (left: lysenin followed by an antibody marked with Alexa 488 fluorophore), of nuclear DNA with Hoechst 33258 (center: Hoechst) or both (right, merge). Figures correspond to human lung tumour sections (A549 cells) formed in immuno-depressed mice treated with a vehicle (control) or with [−]2OHOA at 600 mg/kg per day or at 900 mg/kg per day (oral administration, 50 days).
Bottom panel: The ordinate axis represents the quantification of the fluorescence intensity (arbitrary units) by confocal microscopy in slices of tumours shown in the upper panel (average+average standard deviation), coming from animals treated with a vehicle, or 2OHOA at 600 mg/kg per day (T600) or 900 mg/kg per day (T900) during 50 days. *** P<0.001.

A172 cells = assay: Levels of SM in cell membranes, A172; type: cell-based, human; conditions: A172, 200 μM [−]2OHOA
Procedure: as §1

Ras protein = assay: Ras translocation from membrane to cytoplasm by confocal microscopy; type: cell-based; conditions: human glioma, lung cancer and leukaemia cells
Procedure: The high levels of 2OHOA and SM in the membrane impede the anchoring of the Ras protein on the membrane.
2OHOA increases levels of SM in tumoral cells treated as explained above. […] SM is lipid in the membrane which impedes the bonding of certain molecules involved in the proliferation of cells, such as the Ras protein. In this way, levels of Ras were measured by confocal microscopy, using an antibody marked fluorescently, and we were able to detect that the marker passed from the membrane (FIG. 6: 95-99% of total detected fluorescence in the membrane before treatment) to the cytoplasm (94-97% of fluorescence detected in the inside of the cell after treatment with 2OHOA) in human glioma, lung cancer and leukaemia cells. The translocation of Ras from the membrane to the cytoplasm means an absence of productive interaction between Ras and Receptor-Tirosine-Kinase (RTK) or between Ras and Raf, so the proteins in MAP kinase chain are not activated and the tumoral cells cease to proliferate and programmed cell death starts. Changes in cell physiology induced by the molecules of present invention, have as intermediate effects (prior to the cancer cells death or the regulation of the activity in other cells), the induction of dramatic reductions in DHFR levels and dramatic increases of GFAP levels (FIG. 6).

[2] = tested on: Raf, MEK, MAP kinase (ERK1 y ERK2), Akt and EGFR; assay: Immunoblot of phosphorylased signalling proteins; type: cell-based, human
Procedure: D: The state of activity (levels of phosphorylased forms) of Akt and EGFR also decreases after incubating with 250 μM of 2OHOA.

U118 cells = assay: Nuclear SM levels in U118 cells; type: cell-based, human; conditions: U118, 200 μM, 24 hours
Procedure: FIG. 3. Compound 2OHOA induces an increase in nuclear SM. U118 cancer cells were treated for 24 hours with a vehicle (control) or with 2OHOA at a concentration of 200 μM. The values of the ordinate axis represent the average±ESM (n=3-5) of levels of SM compared to the untreated control (100%).
Another effect associated to the reduction in cell proliferation is an increase in the levels of nuclear SM.

enzyme EC 2.7.8.27 = assay: Activity of enzyme EC 2.7.8.27 in U118 cells (NBD-Cer to NBD-SM); type: cell-based, human; conditions: U118, 200 μM, 5 minutes to 24 hours
Procedure: FIG. 4. Compound 2OHOA acts directly on enzyme EC 2.7.8.27. In A, B, C, in all cases, we incubated cells or cellular extracts or means of incubation with the fluorescent stratum of this enzyme NBD-Cer (nitro-benzoxadiazol-il) ceramide], in the presence or absence (control, white bars) of 2OHOA (black bars). Then, we extracted the lipids and determined the levels of formation of NBD-SM per HPTLC (HP-TLC, high performance thin layer chromatography). The values are presented on the ordinate axis as the average±ESM (n=3-5).
A. In vivo experiment of the activity of enzyme EC 2.7.8.27: we incubated U118 cells with NBD-Cer for 4 hours and then treated them with compound 2OHOA (200 μM) for different periods of time (5, 15, 60 minutes y 24 hours). Later, the cells homogenised and we measured the metabolisation of fluorofor NBD-Cer to become NBD-SM.
The speed of the phenomenon clearly indicates direct and effective interaction between enantiomer 2OHOA and enzyme EC 2.7.8.27. So, this invention refers to the use of the aforementioned compounds as activators (enantiomer [−]), or inhibitors (enantiomer [+]) specific to enzyme EC 2.7.8.27.

enzyme EC 2.3.1.50 = assay: [3H]palmitate incorporation in lipid fractions of U118 cells; type: cell-based, human; parameters: dose or concentration left out as unconfirmed; conditions: U118, 24 h
Procedure: FIG. 9. Regulation of the activity of enzyme 2.3.1.50.
We incubated human glioma cells U118 in the presence or absence (control) of 2OHOA ([…], 24 h) and later incubated them with [^3H]palmitate for 5 minutes. After these periods of incubation, we extracted the cellular lipids and separated them by TLC. The bands correspond to each species of lipid extracted and the amount of radioactive palmitate incorporated was measured by liquid shining. As we can see, not only was there an important incorporation of the fraction of the SM (an indicator of the activity of enzyme EC 2.7.8.27), but also in the fraction of the ceramide, which indicates activity of enzyme EC 2.3.1.50 (serin-palmitoil transferase).

CCCCCCCC/C=C\CCCCCCC(O)C(=O)O (stereo not drawn) [[−]2OHOA] [[−] HOOC—HOCH—(CH2)6—(CH═CH—CH2)1—(CH2)6—CH3]
% SM after treatment (U87 cells): 21%
% SM after treatment (PC3 cells): 27%
% SM after treatment (C-6 cells): 20%
levels of SM in A549 tumours [1]: levels of SM significantly increase
% SM after treatment (A172 cells): 23%

CCCCCCCC/C=C\CCCCCCC(O)C(=O)O (racemic) [2OHOA, 2-hydroxyoleic acid]
Ras fluorescence detected in the inside of the cell after treatment (Ras protein): 94-97%
state of activity (phosphorylased forms) of Akt and EGFR ([2]; 250 μM): decreases
phosphorylased (active) form of Raf and MEK ([2]; 150, 200 o 250 μM): reduction in state of the (active) phosphorylased form of both proteins
state of activity of MAP kinase (ERK1 y ERK2) ([2]; 150, 200 o 250 μM): dramatic reduction in the state of activity
level of nuclear SM (U118 cells): increases in the level of nuclear SM
activation of enzyme EC 2.7.8.27 in cell cultures (enzyme EC 2.7.8.27): enzymatic activation is visible from the first few minutes of incubation
activity of enzyme EC 2.3.1.50 ([3H]palmitate in ceramide fraction) (enzyme EC 2.3.1.50): specific activator of enzyme EC 2.3.1.50
